Experimental findings from ChEMBL document CHEMBL4811286, “Novel 1,3,4-oxadiazole compounds inhibit the tyrosinase and melanin level: Synthesis, in-vitro, and in-silico studies” (Bioorg Med Chem, 2021) are described below.

Active and inactive are the calls of the source. The rule behind the calls is not given here.

The target of data set [1] is T1, Tyrosinase (Agaricus bisporus, UniProt O42713).
T1 sequence (O42713 whole entry): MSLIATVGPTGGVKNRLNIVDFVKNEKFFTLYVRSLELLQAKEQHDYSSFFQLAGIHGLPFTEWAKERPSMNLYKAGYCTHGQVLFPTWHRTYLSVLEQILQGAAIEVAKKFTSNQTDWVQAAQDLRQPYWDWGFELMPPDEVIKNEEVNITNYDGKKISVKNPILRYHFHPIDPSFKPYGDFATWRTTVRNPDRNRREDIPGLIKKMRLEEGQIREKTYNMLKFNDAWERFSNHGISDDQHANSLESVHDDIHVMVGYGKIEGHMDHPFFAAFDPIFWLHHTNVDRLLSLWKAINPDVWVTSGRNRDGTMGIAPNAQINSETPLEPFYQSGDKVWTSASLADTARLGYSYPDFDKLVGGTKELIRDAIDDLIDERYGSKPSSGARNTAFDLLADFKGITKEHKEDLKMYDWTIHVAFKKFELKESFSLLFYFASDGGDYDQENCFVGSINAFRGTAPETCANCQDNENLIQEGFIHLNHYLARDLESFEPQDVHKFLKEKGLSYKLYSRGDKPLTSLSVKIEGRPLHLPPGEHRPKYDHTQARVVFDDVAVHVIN
In words: Inhibition of mushroom tyrosinase using L-DOPA as substrate.

A short description of data set [2]: Cytotoxicity against mouse B16-F10 cells assessed as cell viability at 50 ug/ml measured after 24 hrs by MTT assay relative to control. Type of data set: cell-based. Particulars: at 50 µg/mL, read-out: Activity. On the technique in general: Tetrazolium dyes change colour on reduction, which living cells bring about.
The test system of data set [3] is B16-F10. In words: Cytotoxicity against mouse B16-F10 cells assessed as reduction in cell viability upto 10 ug/ml measured after 24 hrs by MTT assay. As to conditions: b16-f10, 24 h, dose <=10 µg/ml. Format: cell-based.
Data set [4] deals with B16-F10. In words: Cytotoxicity against mouse B16-F10 cells assessed as reduction in cell viability at 10 to 50 ug/ml measured after 24 hrs by MTT assay. As to conditions: b16-f10, 24 h, dose 10-50 µg/ml. Format: cell-based.
The subject of data set [5] is B16-F10. In words: Anti-melanogenic activity in mouse B16-F10 cells assessed as reduction in alpha-MSH-induced tyrosinase expression at 50 uM incubated for 24 hrs by Western blot analysis. Type of data set: functional, cell-based. On the technique in general: In western blotting, separated proteins are transferred to a membrane and probed.
The test system of data set [6] is B16-F10. In words: Anti-melanogenic activity against alpha-MSH-induced mouse B16-F10 cells assessed as reduction in melanin content at 50 uM incubated for 24 hrs […] relative to control. Type of data set: functional.
The subject of data set [7] is B16-F10. In words: Anti-melanogenic activity against alpha-MSH-induced mouse B16-F10 cells assessed as reduction in melanin content at 20 uM incubated for 24 hrs […] relative to control. Type of data set: functional.
Data set [8] deals with T1, Tyrosinase. Briefly: Noncompetitive inhibition of mushroom tyrosinase assessed as dissociation constant using L-DOPA as substrate by Lineweaver-Burk plot analysis.
In data set [9] the test system is B16-F10. In words: Anti-melanogenic activity against alpha-MSH-induced mouse B16-F10 cells assessed as reduction in melanin content at 30 uM incubated for 24 hrs […] relative to control. Format: functional.
The subject of data set [10] is B16-F10. Briefly: Anti-melanogenic activity in mouse B16-F10 cells assessed as reduction in alpha-MSH-induced tyrosinase expression at 10 uM incubated for 24 hrs by Western blot analysis. Format: functional, cell-based.
Data set [11] deals with B16-F10. In words: Anti-melanogenic activity against alpha-MSH-induced mouse B16-F10 cells assessed as reduction in melanin content at 10 uM incubated for 24 hrs […] relative to control. Type of data set: functional.
Data set [12] deals with B16-F10. In words: Anti-melanogenic activity in mouse B16-F10 cells assessed as reduction in alpha-MSH-induced tyrosinase expression at 20 to 30 uM incubated for 24 hrs by Western blot analysis. Particulars: dose 20-30 µM. Format: functional, cell-based.
Compound in data set [13]: COc1ccccc1-c1nnc(SCC(=O)Nc2ccccc2)o1
Briefly: Noncompetitive inhibition of mushroom tyrosinase assessed as Vmax at 0.0017 uM using L-DOPA as substrate by Lineweaver-Burk plot analysis. As to conditions: Agaricus bisporus.

Compound in data set [14]: COc1ccccc1-c1nnc(SCC(=O)Nc2ccccc2)o1
Briefly: Noncompetitive inhibition of mushroom tyrosinase assessed as Km at 0.0033 uM using L-DOPA as substrate by Lineweaver-Burk plot analysis. As to conditions: Agaricus bisporus.

Compound in data set [15]: COc1ccccc1-c1nnc(SCC(=O)Nc2ccccc2)o1
Briefly: Noncompetitive inhibition of mushroom tyrosinase assessed as Km at 0.0066 uM using L-DOPA as substrate by Lineweaver-Burk plot analysis. Particulars: Agaricus bisporus.

Compound in data set [16]: COc1ccccc1-c1nnc(SCC(=O)Nc2ccccc2)o1
Briefly: Noncompetitive inhibition of mushroom tyrosinase assessed as Vmax at 0.0066 uM using L-DOPA as substrate by Lineweaver-Burk plot analysis. As to conditions: Agaricus bisporus.

Compound in data set [17]: COc1ccccc1-c1nnc(SCC(=O)Nc2ccccc2)o1
Briefly: Noncompetitive inhibition of mushroom tyrosinase assessed as Km at 0.0017 uM using L-DOPA as substrate by Lineweaver-Burk plot analysis. As to conditions: Agaricus bisporus.

Compound in data set [18]: COc1ccccc1-c1nnc(SCC(=O)Nc2ccccc2)o1
Briefly: Noncompetitive inhibition of mushroom tyrosinase assessed as Vmax at 0.0033 uM using L-DOPA as substrate by Lineweaver-Burk plot analysis. Particulars: Agaricus bisporus.

As usually defined, the IC50 is the concentration at which inhibition is half-maximal. Read a low IC50 as greater potency. On Tyrosinase [1], `COc1ccccc1-c1nnc(SCC(=O)Nc2ccc(I)cc2)o1` came in with an IC50 of 23 nM. Moreover, in [2], the viability at 24 h, 50 ug/ml worked out at 80%.

Consider `COc1cccc(-c2nnc(SCC(=O)Nc3ccc(Br)cc3)o2)c1`, for which, on Tyrosinase [1], the IC50 is 145 nM.

Molecule `O=C(CSc1nnc(-c2ccccc2)o1)Nc1ccc(I)cc1` gave an IC50 at Tyrosinase [1] of 85 nM.

`O=C(CSc1nnc(-c2ccccc2)o1)Nc1ccc(Br)cc1` displayed an IC50 against Tyrosinase [1] of 39 nM.

`COc1cccc(-c2nnc(SCC(=O)Nc3ccc(F)cc3)o2)c1` displayed an IC50 on Tyrosinase [1] of 27 nM. Further, the results for the Activity result in the data set on B16-F10 [3] and in the data set with B16-F10 [4] were “Non-Toxic” and “Toxic”, respectively.

`O=C(CSc1nnc(-c2ccccc2)o1)Nc1ccccc1` gave an IC50 on Tyrosinase [1] of 231 nM.

The term inhibition denotes how much of the control response was suppressed. Broadly, the Ki is the equilibrium dissociation constant of an inhibitor or competing ligand from its target. With `COc1ccccc1-c1nnc(SCC(=O)Nc2ccccc2)o1`, the IC50 against Tyrosinase [1] was found to be 3 nM. The viability at 24 h, 50 ug/ml in data set [2] amounted to 80%. In addition, the outcome with B16-F10 [5], in the data set on B16-F10 [10] and in the data set on B16-F10 [12] was Active. The inhibition at 50 µM in the data set with B16-F10 [6] was 78%. Besides, in the data set on B16-F10 [7], the inhibition at 20 µM turned out to be 62%. In addition, at Tyrosinase [8], the Ki stood at 3.1 nM. Besides, the inhibition at 30 µM in the data set with B16-F10 [9] came out at 77%. Besides, the inhibition at 10 µM in the data set with B16-F10 [11] amounted to 16%.

For the molecule `COc1cccc(-c2nnc(SCC(=O)Nc3ccc(I)cc3)o2)c1`, the IC50 at Tyrosinase [1] is 88 nM.

In turn, `O=C(CSc1nnc(-c2ccccc2)o1)Nc1ccc(F)cc1` showed an IC50 against Tyrosinase [1] of 396 nM.

On Tyrosinase [1], `COc1cccc(-c2nnc(SCC(=O)Nc3ccccc3)o2)c1` gave an IC50 of 19 nM. Moreover, the Activity entry in the data set with B16-F10 [3] is on record as “Non-Toxic”; in the data set with B16-F10 [4] it was “Toxic”.

Consider `COc1ccccc1-c1nnc(SCC(=O)Nc2ccc(F)cc2)o1`, for which the IC50 on Tyrosinase [1] came out at 18 nM. Moreover, the viability at 24 h, 50 ug/ml in data set [2] was determined as 80%.

On Tyrosinase [1], `COc1ccccc1-c1nnc(SCC(=O)Nc2ccc(Br)cc2)o1` returned an IC50 of 46 nM.

B1: Tyrosinase (Agaricus bisporus), O42713 (protein)
chain: T1 sequence (O42713 whole entry)
The Km is the substrate concentration at which the rate is half of its maximum. Regarding B1, the values for the Vmax in [13], in data set [16] and in data set [18] were 4.97 deltaA/s, 2.27 deltaA/s and 3.64 deltaA/s, respectively. The Km in data set [14], in [15] and in data set [17] was 250 µM throughout.
